Results: ChEMBL document CHEMBL2331501, “3H-1,2,4-Dithiazol-3-one compounds as novel potential affordable antitubercular agents” (Bioorg Med Chem Lett, 2013)
Converted amounts (≈) assume the structure as drawn.

Tests used:
[1] = Cytotoxicity against human L02 cells assessed as inhibitory ratio at 100 uM after 48 hrs by MTT assay; assay type: cell-based; settings: read-out: INH
[2] = test system: Mycobacterium tuberculosis; assay: Antitubercular activity against Mycobacterium tuberculosis H37Rv ATCC 27294 after 11 days by serial dilution method; assay type: functional; settings: H37Rv ATCC 27294, 264 h

| Structure (SMILES) | cytotoxicity at 48 h, 100 µM [1] | MIC90 [2] | MIC99 [2] |
| --- | --- | --- | --- |
| O=c1nc(-c2cc(F)c(Cl)nc2Cl)ss1 | 24.3% | 32 µg/mL (≈ 113 µM) | 4 µg/mL (≈ 14.1 µM) |
| O=c1nc(-c2cnccn2)ss1 | 56.7% | 32 µg/mL (≈ 162 µM) | 16 µg/mL (≈ 81.1 µM) |
| O=c1nc(-c2cccnc2Cl)ss1 | 34.4% | 32 µg/mL (≈ 139 µM) | 16 µg/mL (≈ 69.4 µM) |
| O=c1nc(-c2ccc([N+](=O)[O-])cc2Cl)ss1 | 28.6% | 32 µg/mL (≈ 116 µM) | 16 µg/mL (≈ 58.2 µM) |
| O=c1nc(-c2ccccc2[N+](=O)[O-])ss1 | 33% | 16 µg/mL (≈ 66.6 µM) | 32 µg/mL (≈ 133 µM) |
| Cc1ccc(-c2nc(=O)ss2)s1 | 36.3% | 16 µg/mL (≈ 74.3 µM) | 32 µg/mL (≈ 149 µM) |
| Nc1ccc(-c2nc(=O)ss2)cc1 | 46.3% | 16 µg/mL (≈ 76.1 µM) | 32 µg/mL (≈ 152 µM) |
| O=c1nc(-c2ccc3ccccc3c2)ss1 | 47.2% | 32 µg/mL (≈ 130 µM) | 16 µg/mL (≈ 65.2 µM) |
| COc1ccc(OC)c(-c2nc(=O)ss2)c1 | 23.7% | 32 µg/mL (≈ 125 µM) | 32 µg/mL (≈ 125 µM) |
| COc1cccc(-c2nc(=O)ss2)c1 | 38.6% | 16 µg/mL (≈ 71 µM) | 32 µg/mL (≈ 142 µM) |
| Cc1ccccc1-c1nc(=O)ss1 | 18.6% | 16 µg/mL (≈ 76.4 µM) | 32 µg/mL (≈ 153 µM) |
| O=c1nc(-c2ccc(F)cc2)ss1 | 33.7% | 32 µg/mL (≈ 150 µM) | 16 µg/mL (≈ 75 µM) |
| O=c1nc(-c2ccc(Cl)cc2)ss1 | 46% | 64 µg/mL (≈ 279 µM) | 32 µg/mL (≈ 139 µM) |
| Cc1sc(-c2nsc(=O)o2)cc1[N+](=O)[O-] | 53.8% | 2 µg/mL (≈ 8.19 µM) | 1 µg/mL (≈ 4.09 µM) |
| O=c1oc(-c2cc(F)c(Cl)nc2Cl)ns1 | 15.1% | 16 µg/mL (≈ 59.9 µM) | 8 µg/mL (≈ 30 µM) |
| O=c1oc(-c2cccnc2Cl)ns1 | 31.4% | 8 µg/mL (≈ 37.3 µM) | 8 µg/mL (≈ 37.3 µM) |
| O=c1oc(-c2ccc([N+](=O)[O-])cc2Cl)ns1 | 54.6% | 16 µg/mL (≈ 61.9 µM) | 16 µg/mL (≈ 61.9 µM) |
| O=c1oc(-c2ccccc2[N+](=O)[O-])ns1 | 32.4% | 8 µg/mL (≈ 35.7 µM) | 16 µg/mL (≈ 71.4 µM) |
| Cc1ccc(-c2nsc(=O)o2)s1 | 25.1% | 8 µg/mL (≈ 40.1 µM) | 16 µg/mL (≈ 80.3 µM) |
| Nc1ccc(-c2nsc(=O)o2)cc1 | 39.5% | 16 µg/mL (≈ 82.4 µM) | 16 µg/mL (≈ 82.4 µM) |
| O=c1oc(-c2ccc3ccccc3c2)ns1 | 26.2% | 16 µg/mL (≈ 69.8 µM) | 16 µg/mL (≈ 69.8 µM) |
| COc1ccc(OC)c(-c2nsc(=O)o2)c1 | 25.3% | 16 µg/mL (≈ 66.9 µM) | 16 µg/mL (≈ 66.9 µM) |
| COc1cccc(-c2nsc(=O)o2)c1 | 15% | 8 µg/mL (≈ 38.2 µM) | 16 µg/mL (≈ 76.5 µM) |
| Cc1ccccc1-c1nsc(=O)o1 | 18.1% | 8 µg/mL (≈ 41.4 µM) | 16 µg/mL (≈ 82.8 µM) |
| O=c1oc(-c2ccccc2Cl)ns1 | 20.6% | 8 µg/mL (≈ 37.4 µM) | 8 µg/mL (≈ 37.4 µM) |
| O=c1oc(-c2ccc(F)cc2)ns1 | 21.7% | 16 µg/mL (≈ 81.1 µM) | 16 µg/mL (≈ 81.1 µM) |
| O=c1oc(-c2ccc(Cl)cc2)ns1 | 39.6% | 32 µg/mL (≈ 150 µM) | 4 µg/mL (≈ 18.7 µM) |
| O=c1nc(-c2ccccc2Cl)ss1 | 40.1% | 8 µg/mL (≈ 34.8 µM) | 16 µg/mL (≈ 69.7 µM) |
| O=c1oc(-c2cnccn2)ns1 | 31.4% | 16 µg/mL (≈ 88.3 µM) | 4 µg/mL (≈ 22.1 µM) |
